Assay results from patent US20260092071A1, “COMPOUNDS AND COMPOSITIONS AS SMARCA2/4 DEGRADERS AND USES THEREOF” (REGENTS OF THE UNIVERSITY OF MICHIGAN, priority 2022, published 2026).

Legend:
[1] = test system: SMARCA4-deficient cancer cell lines; conditions: pharmacological studies; cited from earlier work
SMARCA4 = SMARCA4 (Homo sapiens, UniProt P51532); experiment: HiBiT assay for protein degradation, Hela SMARCA4-HiBiT cells (A series); format: cell-based; set-up: fuse HiBiT to the carboxy terminus of SMARCA2 (Promega CS302365) or SMARCA4 (Promega CS3023225); host or cells: HeLa (CRISPR/Cas9 HiBiT knock-in); conditions: Hela SMARCA4-HiBiT cells, 24 hours treatment; for DC50: read-out: SMARC A4 Hela HiBit DC50; for Dmax: read-out: SMARC A4 Hela HiBit Dmax
In short: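 SMARCA4 degradation was measured in HeLa cells in which HiBiT had been knocked into the SMARCA4 carboxy terminus via CRISPR/Cas9 (Promega CS3023225). Cells were maintained in DMEM with FBS and penicillin-streptomycin. At the end of treatment, SMARCA4 levels were read by lytic HiBiT luminescence (Nano-Glo®, Promega N3050), and data were analyzed with GraphPad Prism.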

SMARCA2 = SMARCA2 (Homo sapiens, UniProt P51531); experiment: HiBiT assay for protein degradation, Hela SMARCA2-HiBiT cells (A series); format: cell-based; set-up: Hela cells were genetically modified via CRISPR/Cas9 to fuse HiBiT to the carboxy terminus of SMARCA2; host or cells: HeLa (CRISPR/Cas9 HiBiT knock-in); conditions: Hela SMARCA2-HiBiT cells, 24 hours treatment; for DC50: read-out: SMARC A2 Hela HiBit DC50; for Dmax: read-out: SMARC A2 Hela HiBit Dmax (%);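 for SMARC A2 Hela HiBit Dmax (%): 24 h compound treatment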
In short: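 SMARCA2 degradation was measured in HeLa cells whose endogenous SMARCA2 carries a carboxy-terminal HiBiT tag introduced by CRISPR/Cas9 (Promega CS302365). Cells were maintained in DMEM with FBS and penicillin-streptomycin. SMARCA2 levels were read at the end of the experiment by Nano-Glo® HiBiT lytic luminescence (Promega N3050) and analyzed in GraphPad Prism.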

Chain of SMARCA2 (P51531 whole entry): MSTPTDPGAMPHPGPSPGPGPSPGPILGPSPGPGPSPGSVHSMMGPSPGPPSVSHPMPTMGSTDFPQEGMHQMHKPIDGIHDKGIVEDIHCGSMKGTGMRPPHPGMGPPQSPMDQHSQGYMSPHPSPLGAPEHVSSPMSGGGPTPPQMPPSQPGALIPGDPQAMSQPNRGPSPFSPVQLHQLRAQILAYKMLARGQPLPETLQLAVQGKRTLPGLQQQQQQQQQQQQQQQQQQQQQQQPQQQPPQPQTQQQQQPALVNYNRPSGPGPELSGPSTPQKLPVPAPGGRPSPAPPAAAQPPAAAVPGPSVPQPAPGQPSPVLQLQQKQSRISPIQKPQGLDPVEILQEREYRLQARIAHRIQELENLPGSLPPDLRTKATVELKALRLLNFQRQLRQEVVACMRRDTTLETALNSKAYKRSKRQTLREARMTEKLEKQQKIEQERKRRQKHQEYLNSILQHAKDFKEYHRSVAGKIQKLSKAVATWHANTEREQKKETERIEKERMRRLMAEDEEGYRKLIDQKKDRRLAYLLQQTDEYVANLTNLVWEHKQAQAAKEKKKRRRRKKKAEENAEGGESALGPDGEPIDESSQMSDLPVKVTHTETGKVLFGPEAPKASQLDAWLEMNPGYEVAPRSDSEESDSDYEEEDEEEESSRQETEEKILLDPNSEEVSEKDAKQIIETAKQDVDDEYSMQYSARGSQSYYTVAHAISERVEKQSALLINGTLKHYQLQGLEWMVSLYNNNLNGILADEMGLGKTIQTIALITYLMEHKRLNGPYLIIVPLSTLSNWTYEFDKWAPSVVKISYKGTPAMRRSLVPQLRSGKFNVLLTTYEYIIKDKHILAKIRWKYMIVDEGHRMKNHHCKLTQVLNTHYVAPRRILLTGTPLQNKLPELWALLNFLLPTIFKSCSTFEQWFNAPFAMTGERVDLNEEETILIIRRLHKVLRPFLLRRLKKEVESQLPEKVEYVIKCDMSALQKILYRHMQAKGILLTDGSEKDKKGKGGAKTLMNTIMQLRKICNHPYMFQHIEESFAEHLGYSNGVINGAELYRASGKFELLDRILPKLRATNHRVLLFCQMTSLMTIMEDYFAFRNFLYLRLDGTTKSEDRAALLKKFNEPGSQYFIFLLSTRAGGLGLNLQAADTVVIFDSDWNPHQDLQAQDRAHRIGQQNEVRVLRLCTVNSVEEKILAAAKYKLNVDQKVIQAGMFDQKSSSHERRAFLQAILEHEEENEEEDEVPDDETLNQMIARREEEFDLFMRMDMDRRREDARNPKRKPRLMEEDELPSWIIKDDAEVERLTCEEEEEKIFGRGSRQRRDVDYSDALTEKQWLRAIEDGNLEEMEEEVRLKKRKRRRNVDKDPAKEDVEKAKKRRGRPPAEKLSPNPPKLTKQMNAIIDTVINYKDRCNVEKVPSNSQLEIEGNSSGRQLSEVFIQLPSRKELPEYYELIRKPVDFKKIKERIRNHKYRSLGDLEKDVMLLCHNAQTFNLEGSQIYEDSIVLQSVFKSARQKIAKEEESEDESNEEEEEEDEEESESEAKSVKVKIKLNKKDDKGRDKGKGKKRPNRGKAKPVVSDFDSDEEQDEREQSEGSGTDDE
Chain of SMARCA4 (P51532 whole entry): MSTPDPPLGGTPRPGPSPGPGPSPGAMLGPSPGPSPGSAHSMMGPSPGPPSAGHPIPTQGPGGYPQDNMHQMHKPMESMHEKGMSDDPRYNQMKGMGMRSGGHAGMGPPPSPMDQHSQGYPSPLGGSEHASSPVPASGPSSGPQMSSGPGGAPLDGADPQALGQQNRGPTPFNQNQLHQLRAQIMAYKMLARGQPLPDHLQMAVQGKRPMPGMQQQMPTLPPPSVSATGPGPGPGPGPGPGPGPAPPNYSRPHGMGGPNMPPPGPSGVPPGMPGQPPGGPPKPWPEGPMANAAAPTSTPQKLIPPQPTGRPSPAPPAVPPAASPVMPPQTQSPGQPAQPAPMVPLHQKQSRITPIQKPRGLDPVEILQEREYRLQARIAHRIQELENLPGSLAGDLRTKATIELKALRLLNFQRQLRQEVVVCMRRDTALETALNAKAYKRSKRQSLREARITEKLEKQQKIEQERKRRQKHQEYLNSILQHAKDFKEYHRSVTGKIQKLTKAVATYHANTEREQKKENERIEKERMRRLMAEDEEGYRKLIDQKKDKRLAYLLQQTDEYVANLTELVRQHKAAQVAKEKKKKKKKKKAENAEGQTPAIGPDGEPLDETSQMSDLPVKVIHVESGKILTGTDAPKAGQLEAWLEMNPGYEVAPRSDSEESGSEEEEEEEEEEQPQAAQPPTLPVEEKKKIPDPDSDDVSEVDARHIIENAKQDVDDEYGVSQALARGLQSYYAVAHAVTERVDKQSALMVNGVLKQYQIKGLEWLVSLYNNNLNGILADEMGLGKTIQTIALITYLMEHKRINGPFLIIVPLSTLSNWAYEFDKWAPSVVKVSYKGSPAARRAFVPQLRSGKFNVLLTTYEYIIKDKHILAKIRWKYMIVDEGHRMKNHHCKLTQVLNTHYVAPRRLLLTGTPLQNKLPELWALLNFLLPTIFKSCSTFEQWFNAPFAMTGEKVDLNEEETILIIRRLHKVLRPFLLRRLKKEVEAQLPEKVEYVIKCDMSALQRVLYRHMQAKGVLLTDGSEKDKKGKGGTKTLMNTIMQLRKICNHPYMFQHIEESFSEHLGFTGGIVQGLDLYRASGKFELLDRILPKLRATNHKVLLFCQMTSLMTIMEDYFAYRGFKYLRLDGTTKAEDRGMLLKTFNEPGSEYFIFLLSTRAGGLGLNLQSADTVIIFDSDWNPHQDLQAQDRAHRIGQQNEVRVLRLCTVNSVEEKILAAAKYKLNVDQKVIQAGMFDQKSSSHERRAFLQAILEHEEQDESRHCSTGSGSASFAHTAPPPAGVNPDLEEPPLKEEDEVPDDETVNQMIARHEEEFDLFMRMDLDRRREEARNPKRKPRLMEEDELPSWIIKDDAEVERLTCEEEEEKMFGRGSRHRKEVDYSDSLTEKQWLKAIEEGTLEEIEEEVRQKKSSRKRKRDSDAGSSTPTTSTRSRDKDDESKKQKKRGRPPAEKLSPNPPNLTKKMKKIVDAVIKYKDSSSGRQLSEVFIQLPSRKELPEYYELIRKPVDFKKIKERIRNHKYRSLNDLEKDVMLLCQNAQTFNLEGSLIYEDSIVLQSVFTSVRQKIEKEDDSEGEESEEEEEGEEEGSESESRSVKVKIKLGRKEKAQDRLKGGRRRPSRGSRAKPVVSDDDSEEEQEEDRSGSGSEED

Compound	DC50 (SMARCA4) [nM]	Dmax (SMARCA4) [%]	DC50 (SMARCA2) [nM]	Dmax (SMARCA2) [%]	antiproliferative phenotype [1]
O=C(/C=C/N1C[C@H]2C[C@@H]1CN2c1ccccn1)c1ccccc1O [PFI-3]					fail to display an antiproliferative phenotype
COCCOCCOCCOCCOC[C@H](NC(=O)[C@@H]1C[C@@H](O)CN1C(=O)[C@@H](n1cc([C@H]2CC[C@H](CN3CCC(c4ccc5c(c4)-n4c(nc(=O)c6c(Cl)cccc64)C54CCCCC4)CC3)CC2)nn1)C(C)(C)C)c1ccc(-c2scnc2C)cc1 [Compound A149, (2S,4R)-1-((S)-2-(4-((1r,4S)-4-((4-(4′-chloro-5′-oxo-5′H-spiro[cyclohexane-1,7′-indolo[1,2-a]quinazolin]-10′-yl)piperidin-1-yl)methyl)cyclohexyl)-1H-1,2,3-triazol-1-yl)-3,3-dimethylbutanoyl)-4-hydroxy-N—((R)-16-(4-(4-methylthiazol-5-yl)phenyl)-2,5,8,11,14-pentaoxahexadecan-16-yl)pyrrolidine-2-carboxamide]	> 1000	50 to 69	< 10	> 90	
Cc1ncsc1-c1ccc([C@H](CN2CCOCC2)NC(=O)[C@@H]2C[C@@H](O)CN2C(=O)[C@H](C2CCOCC2)n2cc([C@H]3CC[C@H](CN4CCC(c5ccc6c(c5)-n5c(nc(=O)c7c(Cl)cccc75)C65CCCCC5)CC4)CC3)nn2)cc1 [Compound A100, (2S,4R)-1-((S)-2-(4-((1r,4S)-4-((4-(4′-chloro-5′-oxo-5′H-spiro[cyclohexane-1,7′-indolo[1,2-a]quinazolin]-10′-yl)piperidin-1-yl)methyl)cyclohexyl)-1H-1,2,3-triazol-1-yl)-2-(tetrahydro-2H-pyran-4-yl)acetyl)-4-hydroxy-N—((R)-1-(4-(4-methylthiazol-5-yl)phenyl)-2-morpholinoethyl)pyrrolidine-2-carboxamide]	> 1000	50 to 69	< 10	> 90	
Cc1ncsc1-c1ccc([C@H](CN2CCC3(COC3)C2)NC(=O)[C@@H]2C[C@@H](O)CN2C(=O)[C@@H](n2cc([C@H]3CC[C@H](CN4CCC(c5ccc6c(c5)-n5c(nc(=O)c7c(Cl)cccc75)C6(C)C)CC4)CC3)nn2)C(C)(C)C)cc1 [Compound A99, (2S,4R)-1-((S)-2-(4-((1r,4S)-4-((4-(4-chloro-7,7-dimethyl-5-oxo-5,7-dihydroindolo[1,2-a]quinazolin-10-yl)piperidin-1-yl)methyl)cyclohexyl)-1H-1,2,3-triazol-1-yl)-3,3-dimethylbutanoyl)-4-hydroxy-N—((R)-1-(4-(4-methylthiazol-5-yl)phenyl)-2-(2-oxa-6-azaspiro[3.4]octan-6-yl)ethyl)pyrrolidine-2-carboxamide]	> 1000	< 50	< 10	> 90	

Now from value to compound, other results behind:

DC50 (SMARCA4) [nM]	Dmax (SMARCA4) [%]	DC50 (SMARCA2) [nM]	Dmax (SMARCA2) [%]	Compound	antiproliferative phenotype [1]
< 10	> 90	< 10	> 90	Cc1ncsc1-c1ccc([C@@H](NC(=O)[C@@H]2C[C@@H](O)CN2C(=O)[C@@H](n2cc(C3CC3)nn2)C(C)(C)C)C(=O)N2CCC(c3ccc4c(c3)-n3c(nc(=O)c5c(Br)cccc53)C43CCCCC3)CC2)cc1 [Compound A135, (2S,4R)—N—((R)-2-(4-(4′-bromo-5′-oxo-5′H-spiro[cyclohexane-1,7′-indolo[1,2-a]quinazolin]-10′-yl)piperidin-1-yl)-1-(4-(4-methylthiazol-5-yl)phenyl)-2-oxoethyl)-1-((S)-2-(4-cyclopropyl-1H-1,2,3-triazol-1-yl)-3,3-dimethylbutanoyl)-4-hydroxypyrrolidine-2-carboxamide]	
< 10	70 to 90	< 10	> 90	Cc1ncsc1-c1ccc([C@@H](NC(=O)[C@@H]2C[C@@H](O)CN2C(=O)[C@@H](n2cc(C3CC3)nn2)C(C)(C)C)C(=O)N2CCC3(CCC(N4CCC(c5ccc6c(c5)-n5c(nc(=O)c7c(Br)cccc75)C65CCCCC5)CC4)CC3)CC2)cc1 [Compound A139, (2S,4R)—N—((R)-2-(9-(4-(4′-bromo-5′-oxo-5′H-spiro[cyclohexane-1,7′-indolo[1,2-a]quinazolin]-10′-yl)piperidin-1-yl)-3-azaspiro[5.5]undecan-3-yl)-1-(4-(4-methylthiazol-5-yl)phenyl)-2-oxoethyl)-1-((S)-2-(4-cyclopropyl-1H-1,2,3-triazol-1-yl)-3,3-dimethylbutanoyl)-4-hydroxypyrrolidine-2-carboxamide]	
> 1000	50 to 69	< 10	> 90	COC(=O)COC[C@H](NC(=O)[C@@H]1C[C@@H](O)CN1C(=O)[C@@H](n1cc([C@H]2CC[C@H](CN3CCC(c4ccc5c(c4)-n4c(nc(=O)c6c(Cl)cccc64)C54CCCCC4)CC3)CC2)nn1)C(C)(C)C)c1ccc(-c2scnc2C)cc1 [Compound A152, methyl 2-((R)-2-((2S,4R)-1-((S)-2-(4-((1r,4S)-4-((4-(4′-chloro-5′-oxo-5′H-spiro[cyclohexane-1,7′-indolo[1,2-a]quinazolin]-10′-yl)piperidin-1-yl)methyl)cyclohexyl)-1H-1,2,3-triazol-1-yl)-3,3-dimethylbutanoyl)-4-hydroxypyrrolidine-2-carboxamido)-2-(4-(4-methylthiazol-5-yl)phenyl)ethoxy)acetate]	
> 1000	50 to 69	< 10	> 90	COCCOC[C@H](NC(=O)[C@@H]1C[C@@H](O)CN1C(=O)[C@@H](n1cc([C@H]2CC[C@H](CN3CCC(c4ccc5c(c4)-n4c(nc(=O)c6c(Cl)cccc64)C54CCCCC4)CC3)CC2)nn1)C(C)(C)C)c1ccc(-c2scnc2C)cc1 [Compound A86, (2S,4R)-1-((S)-2-(4-((1r,4S)-4-((4-(4′-chloro-5′-oxo-5′H-spiro[cyclohexane-1,7′-indolo[1,2-a]quinazolin]-10′-yl)piperidin-1-yl)methyl)cyclohexyl)-1H-1,2,3-triazol-1-yl)-3,3-dimethylbutanoyl)-4-hydroxy-N-(®-2-(2-methoxyethoxy)-1-(4-(4-methylthiazol-5-yl)phenyl)ethyl)pyrrolidine-2-carboxamide]	
10 to 100	70 to 90	< 10	> 90	Cc1ncsc1-c1ccc([C@H](CN2CCOCC2)NC(=O)[C@@H]2C[C@@H](O)CN2C(=O)[C@H](C2CCCCC2)n2cc([C@H]3CC[C@H](CN4CCC(c5ccc6c(c5)-n5c(nc(=O)c7c(Br)cccc75)C65CCCCC5)CC4)CC3)nn2)cc1 [Compound A123, (2S,4R)-1-((S)-2-(4-((1r,4S)-4-((4-(4′-bromo-5′-oxo-5′H-spiro[cyclohexane-1,7′-indolo[1,2-a]quinazolin]-10′-yl)piperidin-1-yl)methyl)cyclohexyl)-1H-1,2,3-triazol-1-yl)-2-cyclohexylacetyl)-4-hydroxy-N—((R)-1-(4-(4-methylthiazol-5-yl)phenyl)-2-morpholinoethyl)pyrrolidine-2-carboxamide]	
< 10	> 90	< 10	> 90	Cc1ncsc1-c1ccc([C@@H](NC(=O)[C@@H]2C[C@@H](O)CN2C(=O)[C@@H](n2cc(C3CC3)nn2)C(C)(C)C)C(=O)N2CCC(N3CCC(c4ccc5c(c4)-n4c(nc(=O)c6c(Br)cccc64)C54CCCCC4)CC3)CC2)cc1 [Compound A138, (2S,4R)—N—((R)-2-(4-(4′-bromo-5′-oxo-5′H-spiro[cyclohexane-1,7′-indolo[1,2-a]quinazolin]-10′-yl)-[1,4′-bipiperidin]-1′-yl)-1-(4-(4-methylthiazol-5-yl)phenyl)-2-oxoethyl)-1-((S)-2-(4-cyclopropyl-1H-1,2,3-triazol-1-yl)-3,3-dimethylbutanoyl)-4-hydroxypyrrolidine-2-carboxamide]	
